In patent US20060106028A1, “Polycyclic aromatics and derivatives thereof and processes for their preparation” (priority 2004, published 2006):
≈ marks a conversion by molar mass, not a printed value.

How the values were obtained:
[1] = test system: HT-29 (colorectal carcinoma); assay: In vitro tumor growth inhibition (GI50, propidium iodide); assay type: cell-based; conditions: Homo sapiens, 96 hrs
[2] = test system: SF268 (CNS); assay: as above; assay type: cell-based; conditions: Homo sapiens; SF-268; 96 hrs
[3] = test system: Sheep red blood cells; assay: In vitro toxicity: hemolytic activity; assay type: cell-based; conditions: 2 hrs at 37° C.; 2 to 64 μg/mL; prepared in DMSO or in 6% Tween/4.5% Glycocholate/5% EtOH formulation
Protocol: In vitro toxicity: Sheep red blood cells were exposed to Compound 1 for 2 hrs at 37° C. at concentrations ranging from 2 to 64 μg/mL. Hemolytic activity was determined by monitoring the amount of hemoglobin released spectrophotometrically.

[4] = In vivo toxicity: single-dose maximum tolerated dose in CD1 mice; conditions: mouse, other: i.v. or i.p. (intravenous or intraperitoneal), single-dose via i.v. or i.p. routes, 1% SDS formulation
Protocol: Toxicity and therapeutic efficacy of polycyclic aromatic compounds can be determined by standard pharmaceutical procedures in cell cultures or experimental animals. Therapeutic efficacy is determined in animal models as described above and in the examples herein. Toxicity studies are done to determine the lethal dose for 10% of tested animals (LD10). Animals are treated at the maximum tolerated dose (MTD): the highest dose not producing mortality or greater than 20% body weight loss. The effective dose (ED) is related to the MTD in a given tumor model to determine the therapeutic index of the compound.
In vivo toxicity: With CD1 mice, the maximum tolerated dose (MTD) for a single-dose via i.v. or i.p. routes in 1% SDS formulation was ≧5 mg/kg. The acute toxicity in CD-1 nu/nlu mice of Compound 1 was also determined in 6% Tween/4.5% Glycocholate/5% EtOH formulation.

[5] = test system: CRL nu/nu mice; assay: Repeated dose toxicity in CRL nu/nu mice; assay type: in vivo
Protocol: Repeated dose toxicity was evaluated in CRL nu/nu mice (6% Tween/4.5% Glycocholate/5% EtOH formulation). The MTTD (maximum total tolerated dose) was 25 mg/kg with a qd×4 dosage regimen.

[6] = test system: Staphylococcus aureus (ATCC™ 6538P); assay: Antibacterial activity, MIC (NCCLS M7-A5); assay type: cell-based; conditions: MH medium, 35° C., 16 to 20 hours
[7] = test system: Streptococcus pneumoniae (LSPQ 3412); assay: Antibacterial activity, MIC (NCCLS M7-A5); assay type: cell-based; conditions: MH medium +2% lysed horse blood
[8] = test system: Clostridium difficile (ATCC™ 9689); assay: Antibacterial activity, MIC (NCCLS M11-A5, anaerobic); assay type: cell-based; conditions: Clostridioides difficile; Brucella medium with hemin, vitamin K1 and 5% lysed horse blood; read-out: MIC
Protocol: Antibacterial activity of Compounds 1 and 2 (Table 7) was measured by determining the minimal inhibitory concentration (MIC) necessary to obtain a complete inhibition of bacteria growth in seven indicator strains, namely Staphylococcus aureus (ATCC™ 6538P), Staphylococcus aureus MRS3 (ATCC™ 700699), Enterococcus faecalis VRE-1 (ATCC™ 29212), Enterococcus faecalis VRE-2 (ATCC™ 51299), Escherichia coli (ATCC™ 25922), Streptococcus pneumoniae (LSPQ 3412) and Streptococcus pneumoniae PenR (LSPQ 3349). Indicator strains preparation and MIC determination were performed according to the National Committee for Clinical Laboratory Standards (NCCLS) guideline M7-A5 Methods for Dilution Antimicrobial Susceptibility Tests for Bacteria That Grow Aerobically; Approved Standard-Fifth Edition. (NCCLS document M7-A5, ISBN 1-56238-394-9; NCCLS, 940 West Valley Road, Suite 1400, Wayne, Pa. 19087-1898 USA), the content of which is incorporated herein by reference. MIC determination against C. difficile was performed according to National Committee for Clinical Laboratory Standards (NCCLS) guideline M11-A5 Methods for Antimicrobial Susceptibility Testing of Anaerobic Bacteria.
Compounds 1 and 2 were prepared as 100× stock solutions in DMSO, with concentrations ranging from 3.2 mg/mL to 0.003 mg/mL (a two-fold dilution series over 11 points). An aliquot of each 100× stock solution was diluted 50-fold in test medium described below to give a set of eleven (11) 2× solutions. 50 μL of each of the eleven 2× solutions was aliquoted into the corresponding well of a 12-well row, with the final well reserved for medium alone control.
Vancomycin (Sigma™), used as positive control compound, was prepared as 2× stock solutions in Mueller-Hinton test medium ranging from 64 μg/mL to 0.06 μg/ml (a two-fold dilution series over 11 points). An aliquot of 50 μL corresponding to each concentration (at 2×) was then transferred to 96-well microplates to obtain a series of eleven two-fold dilutions.
An isolated colony of each of the indicator strains was used to inoculate tubes containing 2 mL of test medium. […]

[9] = test system: Staphylococcus aureus (Smith strain, ATCC™ 13709); assay: In vivo antimicrobial efficacy in infected ICR mice; conditions: ip, ICR mice infected i.p., compound i.p. one hour post infection in 1% SDS, mortality recorded for 7 days, read-out: median effective dose (ED50)
Protocol: In vivo efficacy studies were performed on ICR mice (supplied by Charles River Laboratories, Wilmington, Mass.) having a bodyweight of 20±2 g. Mice (38) were inoculated i.p. with an LD90-100 dose (1×10^6 CFU/mouse) of Staphylococcus aureus (Smith strain, ATCC™ 13709) suspended in 0.5 mL of BHI containing 5% mucin. Compound 1 at doses 0.1, 0.5, 1 and 5 mg/kg (formulated in 1% SDS for a total volume of 5 μL/g of weight) was administered i.p. one hour post infection (5 mice for each concentration). Another group of 5 mice was treated i.v. with a 10 mg/kg dose of Vancomycin. Finally, a group of 3 mice was administered vehicle only. Mortality was recorded for 7 days.

CCC(C)c1cc2c(=O)c3ccc4c(OC)c5c(=O)c6c(O)ccc(O)c6c(=O)c5c(O)c4c3c(=O)c2c(=O)n1CC(=O)N1CC(C(=O)O)NC(=O)C1C (stereo not shown) [Compound 1]
GI50 [1]: 8.85 µM | GI50 [2]: 3.36 µM | Hemolytic activity (hemoglobin released) [3]: did not display hemolytic activity up to 64 μg/mL | MTD [4]: ≥ 5 mg/kg | MTTD (maximum total tolerated dose) ([5]; qd×4 dosage regimen, 6% Tween/4.5% Glycocholate/5% EtOH formulation): 25 mg/kg | Organ findings following repeated dosage ([5]; spleen and liver, repeated dosage): Adaptive hypertrophy and hyperplasia were observed in spleen and liver | MIC [6]: 0.016 µg/mL (≈ 0.0217 µM) | MIC [7]: 0.5 to 1 µg/mL (≈ 0.678 to 1.36 µM) | MIC [8]: 0.06 µg/mL (≈ 0.0813 µM) | ED50 [9]: < 0.1 mg/kg
